Measured values reported in US5612378A, “Bis-arylsulfonylaminobenzamide derivatives and the use thereof as factor Xa inhibitors” (priority 1995, dated 1997).

B1: antistasin: leech-derived, 119-amino acid protein antistasin (protein, UniProt P15358 18-136, looked up)
Antistasin: QGPFGPGCEEAGCPEGSACNIITDRCTCSGVRCRMHCPHGFQRSRYGCEFCKCRLEPMKATCDISECPEGMMCSRLTNKCDCKIDINCRKTCPNGLKRDKLGCEYCECRPKRKLIPRLS

What was measured:
experimental restenosis = conditions: in vivo; cited from earlier work
[1] = given as adjuncts to thrombolysis; cited from earlier work
smooth muscle cell = conditions: U.S. Pat. No. 5,385,885; cited from earlier work
Factor Xa [2] = molecular target: T1, Factor Xa (Homo sapiens, UniProt P00742); assay: In vitro inhibition of purified human factor Xa (hydrolysis of Bz-Ile-Glu-Gly-Arg-pNa); type: biochemical; conditions: purified human enzyme, [Factor Xa]=10 nM, [Bz-Ile-Glu-Gly-Arg-pNa]=26 μM, pH 7.5, 37° C.
T1 construct: purchased Enzyme Research Laboratories, Inc
T1 sequence (P00742 235-488 limits assumed): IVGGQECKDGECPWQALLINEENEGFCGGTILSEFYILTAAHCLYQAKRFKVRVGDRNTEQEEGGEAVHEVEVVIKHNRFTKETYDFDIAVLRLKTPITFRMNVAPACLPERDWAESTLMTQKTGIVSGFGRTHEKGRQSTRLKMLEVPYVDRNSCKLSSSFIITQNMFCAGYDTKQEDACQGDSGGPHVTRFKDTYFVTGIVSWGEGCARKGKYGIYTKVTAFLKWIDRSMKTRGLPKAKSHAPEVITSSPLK
T1 sequence (P00742 41-179 partner limits assumed): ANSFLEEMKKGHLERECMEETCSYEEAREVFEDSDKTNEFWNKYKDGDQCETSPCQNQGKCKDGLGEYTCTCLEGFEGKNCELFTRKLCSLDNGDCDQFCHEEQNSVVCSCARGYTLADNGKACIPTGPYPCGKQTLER
Description: (§1) The ability of the compounds of the present invention to act as inhibitors of thrombin, factor Xa and plasmin catalytic activity was assessed by determining the concentration which inhibited enzyme activity by 50% using purified human enzymes.
All assays are based on the ability of the test compound to inhibit the hydrolysis of a peptide p-nitroanilide substrate. In a typical experiment, appropriate substrate is prepared in DMSO, and diluted into an assay buffer consisting of 50mM HEPES and 130 mM NaCl at a pH of 7.5. The final concentration for each of the substrates is listed below. […] Test compounds are prepared as 1 mg/ml solutions in DMSO, and three additional 10-fold dilutions in DMSO are prepared. Enzyme solutions are prepared at the concentrations listed below in assay buffer.
(§2) Reactions are initiated by the addition of a 20 μL aliquot of enzyme, and the absorbance increase at 405 nm is recorded for 15 minutes. Data corresponding to less than 10% of the total substrate hydrolysis is used in the calculations. The ratio of the velocity (rate of the change in absorbance as a function of time) for a sample containing no inhibitor is divided by the velocity of a sample containing inhibitor, and is plotted as a function of inhibitor concentration. The inverse of the slope is the concentration of inhibitor which produces a 50% decrease in activity of the enzyme. This concentration is referred to as the IC50.
Factor Xa activity was assessed as the ability to hydrolyse the substrate Bz-Ile-Glu-Gly-Arg-pNa, and was obtained from Sigma. […] Final DMSO concentration was 0.3%.

human α-thrombin = human α-thrombin (Homo sapiens, UniProt P00734); assay: In vitro inhibition of purified human thrombin (hydrolysis of Bz-Phe-Val-Arg-pNa); type: biochemical; conditions: inhibitor at 6 μM, [thrombin]=36 nM, [Bz-Phe-Val-Arg-pNa]=66 μM, pH 7.5, 37° C.
Description: as §1, with “enzymes. The concentration of added inhibitor that caused a 50% decrease in the initial rate of hydrolysis was defined as the IC50 value.” for “enzymes.”
All assays are based on the ability of the test compound to inhibit the hydrolysis of a peptide p-nitroanilide substrate. In a typical experiment, appropriate substrate is prepared in DMSO, and diluted into an assay buffer consisting of 50mM HEPES and 130 mM NaCl at a pH of 7.5. The final concentration for each of the substrates is listed below. All substrate concentrations are at least 10 fold lower than Km to insure inhibition is competitive. Test compounds are prepared as 1 mg/ml solutions in DMSO, and three additional 10-fold dilutions in DMSO are prepared. Enzyme solutions are prepared at the concentrations listed below in assay buffer.
as §2, with “In a typical IC50 determination, into each well of a 96 well plate is pipetted 280 uL of substrate solution, 10 μL of inhibitor solution, and the plate is allowed to thermally equilibrate at 37° C. in a Molecular Devices Plate Reader for at least 10 minutes. Reactions” for “Reactions”
Thrombin activity was assessed as the ability to hydrolyse the substrate N-benzoyl-Phe-Val-Arg-p-nitroanilide (Bz-Phe-Val-Arg-pNa), and was obtained from Sigma Chemical Company (St. Louis, Mo.). Substrate solutions were prepared at a concentration of 60 μM (60 μM<<Km =1.2 mM) in assay buffer. Final DMSO concentration was 0.3%. […] Final reagent concentrations were: [thrombin]=36 nM, [Bz-Phe-Val-Arg-pNa]=66 μM, [inhibitor]=60 to 0.06 μM.

factor Xa [3] = conditions: cited from earlier work

Molecule	reduction of experimental restenosis (experimental restenosis)	clot lysis and reocclusion [1]	smooth muscle cell proliferation inhibitory activity (smooth muscle cell)	IC50 (Factor Xa [2])	inhibition at 6 µM (human α-thrombin)	inhibition of factor Xa (factor Xa [3])
TAP: soft tick derived protein TAP (tick anticoagulant peptide) (YNRLCIKPRDWIDECDSNEGGERAYFRNGKGGCDSFWICPEDHTGADYYSSYRDCFNACI; UniProt P17726 1-60, looked up)	reduce experimental restenosis	accelerated clot lysis and prevented reocclusion	smooth muscle cell proliferation inhibitory activity			
O=C(NCCCCCCCCNC(=O)c1cccc(NS(=O)(=O)c2ccc3ccccc3c2)c1)c1cccc(NS(=O)(=O)c2ccc3ccccc3c2)c1 [Example 5, 1,8-di[3-(2-naphthalenylsulfonylamino)benzamido]octane]				2100 nM	20%	
O=C(NCc1cccc(CNC(=O)c2cccc(NS(=O)(=O)c3ccc4ccccc4c3)c2)c1)c1cccc(NS(=O)(=O)c2ccc3ccccc3c2)c1 [Example 7, 1,3-di-[3-(2-naphthalenylsulfonylamino)benzamidomethyl]benzene]				2400 nM	20%	
O=C(NCCCN1CCN(CCCNC(=O)c2cccc(NS(=O)(=O)c3ccc4ccccc4c3)c2)CC1)c1cccc(NS(=O)(=O)c2ccc3ccccc3c2)c1 [Example 6, 1,4-di-[3-(2-naphthalenylsulfonylamino)benzamidopropyl]piperazine]				5200 nM	0%	
ecotin: The peptide ecotin is another selective, reversible, tight-binding inhibitor of factor Xa						selective, reversible, tight-binding inhibitor of factor Xa
O=C(NCCCCCNC(=O)c1cccc(NS(=O)(=O)c2ccc3ccccc3c2)c1)c1cccc(NS(=O)(=O)c2ccc3ccccc3c2)c1 [Example 4, 1,5-di[3-(2-naphthalenylsulfonylamino)benzamido]pentane]				3000 nM	0%	
B1	reduce experimental restenosis	accelerated clot lysis and prevented reocclusion	smooth muscle cell proliferation inhibitory activity			
